Test results published in ChEMBL document CHEMBL5505982, “Design, synthesis, biological evaluation and in silico studies of novel quinoline derivatives as potential radioprotective molecules targeting the TLR2 and p53 pathways” (Eur J Med Chem, 2024).
pKd: −log10 of the molar value. Calls of active or inactive are those of the source. No cut-off for these calls is given here.

Experiments:
AHH-1 [1] = test: Induction of apoptosis in human AHH-1 cells assessed as early apoptotic cells preincubated with compound for 24 hrs followed by irradiation with 6 Gy and measured after 24 hrs of radiation by Annexin V-FITC/PI staining based flow cytometry analysis (reference value: 14.1%); assay type: functional; settings: time 48 hrs
AHH-1 [2] = test: Radioprotective activity against human AHH-1 cells assessed as decrease in p53 expression pretreated with compound for 24 hrs in presence of ionizing irradiation by Western blotting analysis; assay type: functional, cell-based
Mus musculus [3] = test: Radioprotective activity in C57BL/6J mouse model assessed as upregulation of G-CSF expression at 300 mg/kg, ip measured after 2 hrs of 7.5 Gy radiation by ELISA analysis; assay type: functional, organism-based
Toll-like receptor 2 [4] = target: T1, Toll-like receptor 2 (Homo sapiens, UniProt O60603); test: Binding affinity to TLR2 (unknown origin) assessed as dissociation constant by SPR analysis
Toll-like receptor 2 [5] = target: T1, Toll-like receptor 2; test: Binding affinity to TLR2 (unknown origin) by SPR analysis; settings: filed as agonist, dose 3-100 µM
AHH-1 [6] = test: Radioprotective activity against human AHH-1 cells assessed as decrease in Bax expression pretreated with compound for 24 hrs in presence of ionizing irradiation by Western blotting analysis; assay type: functional, cell-based
AHH-1 [7] = test: Radioprotective activity against radiation-induced DNA damage in human AHH-1 cells assessed as reduction in gamma-H2AX foci in nucleus preincubated with compound for 24 hrs followed by irradiation with 1.175 Gy/min and measured after 2 hrs of radiation by fluorescence microscopic analysis; assay type: functional, cell-based; settings: time 26.0 hrs
AHH-1 [8] = test: Induction of apoptosis in human AHH-1 cells assessed as necrotic cells preincubated with compound for 24 hrs followed by irradiation with 8 Gy and measured after 24 hrs of radiation by Annexin V-FITC/PI staining based flow cytometry analysis (reference value: 4.86%); assay type: functional; settings: time 48 hrs
Mus musculus [9] = test: Radioprotective activity in C57BL/6J mouse assessed as increase in body weight at 30 mg/kg, ip preincubated with compound for 15 to 1440 mins followed by irradiation and measured after 10, 14, 18, 22 and 30 days; assay type: functional, organism-based; settings: time 15-44640 min
Mus musculus [10] = test: Radioprotective activity in C57BL/6J mouse assessed as increase in WBC count at 300 mg/kg, ip preincubated with compound for 15 to 1440 mins followed by irradiation at 6.5 Gy and measured at 1 to 10 days relative to Ex/RAD/control; assay type: functional, organism-based
AHH-1 [11] = test: Induction of apoptosis in human AHH-1 cells assessed as necrotic cells preincubated with compound for 24 hrs followed by irradiation with 4 Gy and measured after 24 hrs of radiation by Annexin V-FITC/PI staining based flow cytometry analysis (reference value: 1.06%); assay type: functional; settings: time 48 hrs
AHH-1 [12] = test: Induction of apoptosis in human AHH-1 cells assessed as viable cells preincubated with compound for 24 hrs followed by irradiation with 8 Gy and measured after 24 hrs of radiation by Annexin V-FITC/PI staining based flow cytometry analysis (reference value: 45.1%); assay type: functional; settings: time 48 hrs
Mus musculus [13] = test: Radioprotective activity against radiation-induced intestinal injury C57BL/6J mouse model assessed as increase in villi length at 300 mg/kg, ip preincubated with compound for 15 to 1440 mins followed by irradiation with 13 Gy and measured after 84 hrs of radiation by H and E staining based analysis; assay type: functional, organism-based; settings: time 15-6480 min
AHH-1 [14] = test: Induction of apoptosis in human AHH-1 cells assessed as late apoptotic cells preincubated with compound for 24 hrs followed by irradiation with 4 Gy and measured after 24 hrs of radiation by Annexin V-FITC/PI staining based flow cytometry analysis (reference value: 17.7%); assay type: functional; settings: time 48 hrs
Mus musculus [15] = test: Radioprotective activity in irradiated C57BL/6J mouse model assessed as increase in HGB count at 300 mg/kg, ip preincubated with compound for 15 to 1440 mins followed by irradiation with 6.5 Gy and measured after 10 days of radiation relative to Ex-rad/control; assay type: functional, organism-based; settings: time 15-15840 min
Mus musculus [16] = test: Radioprotective activity in irradiated C57BL/6J mouse model assessed as increase in platelets count at 300 mg/kg, ip preincubated with compound for 15 to 1440 mins followed by irradiation with 6.5 Gy and measured after 2 days of radiation; assay type: functional, organism-based; settings: time 15-4320 min
Mus musculus [17] = test: Radioprotective activity in irradiated C57BL/6J mouse model assessed as increase in WBC count at 300 mg/kg, ip preincubated with compound for 15 to 1440 mins followed by irradiation with 6.5 Gy and measured on day 1 (reference value: 43.39%); assay type: functional; settings: time 15-2880 min
Mus musculus [18] = test: Radioprotective activity in irradiated C57BL/6J mouse model assessed as increase in RBC count at 300 mg/kg, ip preincubated with compound for 15 to 1440 mins followed by irradiation with 6.5 Gy and measured after 10 to 13 days of radiation; assay type: functional, organism-based; settings: Erythrocyte
AHH-1 [19] = test: Induction of apoptosis in human AHH-1 cells assessed as late apoptotic cells preincubated with compound for 24 hrs followed by irradiation with 6 Gy and measured after 24 hrs of radiation by Annexin V-FITC/PI staining based flow cytometry analysis (reference value: 29.8%); assay type: functional; settings: time 48 hrs
AHH-1 [20] = test: Induction of apoptosis in human AHH-1 cells assessed as early apoptotic cells preincubated with compound for 24 hrs followed by irradiation with 4 Gy and measured after 24 hrs of radiation by Annexin V-FITC/PI staining based flow cytometry analysis (reference value: 14.3%); assay type: functional; settings: time 48 hrs
AHH-1 [21] = test: Induction of apoptosis in human AHH-1 cells assessed as late apoptotic cells preincubated with compound for 24 hrs followed by irradiation with 8 Gy and measured after 24 hrs of radiation by Annexin V-FITC/PI staining based flow cytometry analysis (reference value: 33.6%); assay type: functional; settings: time 48 hrs
AHH-1 [22] = test: Anti-iradiation activity against human AHH-1 cells assessed as cell viability at 10 micromol preincubated with compound for 24 hrs followed by irradiation with 8 Gy and measured after 24 hrs by CCK-8 assay; assay type: functional; settings: dose 10 µmol; time 48 hrs
Mus musculus [23] = test: Radioprotective activity in C57BL/6J mouse model assessed as upregulation of IL-12 expression at 300 mg/kg, ip measured after 2 hrs of 7.5 Gy radiation by ELISA analysis; assay type: functional, organism-based
Mus musculus [24] = test: Radioprotective activity in C57BL/6J mouse model assessed as upregulation of IL-6 expression at 300 mg/kg, ip measured after 2 hrs of 7.5 Gy radiation by ELISA analysis; assay type: functional, organism-based
Mus musculus [25] = test: Radioprotective activity in irradiated C57BL/6J mouse model assessed as increase in platelets count at 300 mg/kg, ip preincubated with compound for 15 to 1440 mins followed by irradiation with 6.5 Gy and measured after 14 days of radiation relative to Ex-rad/control; assay type: functional, organism-based; settings: time 15-21600 min
Mus musculus [26] = test: Radioprotective activity against radiation-induced intestinal injury C57BL/6J mouse model assessed as increase in number of crypt foci at 300 mg/kg, ip preincubated with compound for 15 to 1440 mins followed by irradiation with 13 Gy and measured after 84 hrs of radiation by H and E staining based analysis; assay type: functional, organism-based; settings: time 15-6480 min
Toll-like receptor 2 [27] = target: T1, Toll-like receptor 2; test: Agonist activity at TLR2 in human HUVEC cells assessed as increase in MyD88 level pretreated with compound for 24 hrs in presence of ionizing irradiation by Western blotting analysis; assay type: cell-based; settings: filed as agonist
AHH-1 [28] = test: Induction of apoptosis in human AHH-1 cells assessed as early apoptotic cells preincubated with compound for 24 hrs followed by irradiation with 8 Gy and measured after 24 hrs of radiation by Annexin V-FITC/PI staining based flow cytometry analysis (reference value: 16.5%); assay type: functional; settings: time 48 hrs

T1 sequence (O60603 whole entry): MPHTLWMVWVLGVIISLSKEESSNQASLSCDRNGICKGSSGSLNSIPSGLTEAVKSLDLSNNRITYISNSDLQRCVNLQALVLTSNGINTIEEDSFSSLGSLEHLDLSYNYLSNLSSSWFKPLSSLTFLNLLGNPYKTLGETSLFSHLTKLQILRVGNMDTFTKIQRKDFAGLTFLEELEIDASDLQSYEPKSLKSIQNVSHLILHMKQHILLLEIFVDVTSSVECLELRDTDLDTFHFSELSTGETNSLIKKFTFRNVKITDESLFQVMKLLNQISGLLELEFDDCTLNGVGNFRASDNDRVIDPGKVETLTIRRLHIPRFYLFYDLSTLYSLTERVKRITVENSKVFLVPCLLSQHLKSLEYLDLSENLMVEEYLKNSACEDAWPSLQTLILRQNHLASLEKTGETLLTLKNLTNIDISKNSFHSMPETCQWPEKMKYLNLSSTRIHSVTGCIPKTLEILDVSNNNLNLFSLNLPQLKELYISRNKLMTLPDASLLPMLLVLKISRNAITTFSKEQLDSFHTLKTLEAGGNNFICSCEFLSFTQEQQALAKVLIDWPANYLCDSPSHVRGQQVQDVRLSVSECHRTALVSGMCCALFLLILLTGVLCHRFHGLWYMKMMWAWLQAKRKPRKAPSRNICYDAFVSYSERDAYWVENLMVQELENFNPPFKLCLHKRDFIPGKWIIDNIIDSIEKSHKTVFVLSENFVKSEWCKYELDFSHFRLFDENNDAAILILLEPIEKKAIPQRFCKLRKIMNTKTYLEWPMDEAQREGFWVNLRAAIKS

With [O-][S+](Cc1ccc(F)cc1)c1ccc2cc(Br)ccc2n1 (stereo not drawn) the Activity (AHH-1 [1]) was 13.7%, the Activity (AHH-1 [2]) was “Active” and the Activity (Mus musculus [3]) was “Active”. For the same molecule, the pKd (Toll-like receptor 2 [4]) was 5.45, the Activity (Toll-like receptor 2 [5]) was “Dose-Dependent Effect” and the Activity (AHH-1 [6]) was “Active”. The Activity (AHH-1 [7]) was “Active”, the Activity (AHH-1 [8]) was 4% and the Activity (Mus musculus [9]) was “Active”. The Activity (Mus musculus [10]) was “Active”, the Activity (AHH-1 [11]) was 1.4% and the Activity (AHH-1 [12]) was 67.3%. The Activity (Mus musculus [13]) was “Active”, the Activity (AHH-1 [14]) was 12.2% and the Activity (Mus musculus [15]) was “Active”. The Activity (Mus musculus [16]) was “Active”, the Activity (Mus musculus [17]) was 38.66% and the Activity (Mus musculus [18]) was “Active”. For the same molecule, the Activity (AHH-1 [19]) was 16.2%, the Activity (AHH-1 [20]) was 14% and the Activity (AHH-1 [21]) was 17.8%. The Activity (AHH-1 [22]) was 55.86%, the Activity (Mus musculus [23]) was “Active” and the Activity (Mus musculus [24]) was “Active”. The Activity (Mus musculus [25]) was “Active”, the Activity (Mus musculus [26]) was “Active” and the Activity (Toll-like receptor 2 [27]) was “Active”. It also gave an Activity (AHH-1 [28]) of 10.8%.
